The assay concerns CD2F1 mice, L1210 leukemia ip, survival T/C. Kind of assay: NCI In Vivo Anticancer Drug Screen. Data for tumor model L1210 Leukemia (intraperitoneal) in CD2F1 (CDF1) mice. Particulars: higher = longer survival. A digest of the protocol: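 Vehicle-treated tumor-bearing mice served as controls (C) for compound-treated mice (T). Reported figure is T divided by C.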
[1] abbreviates: endpoint: mean survival time, dose: 100.0 mg/kg/injection, schedule: Q04DX003 (ip), vehicle: saline with Tween-80.
[2] abbreviates: endpoint: mean survival time, dose: 200.0 mg/kg/injection, schedule: Q04DX003 (ip), vehicle: saline with Tween-80.
Where [3] appears, read: endpoint: mean survival time, dose: 400.0 mg/kg/injection, schedule: Q04DX003 (ip), vehicle: saline with Tween-80.
[4] abbreviates: endpoint: mean survival time, dose: 50.0 mg/kg/injection, schedule: Q04DX002 (ip), vehicle: saline with Tween-80.
Where [5] appears, read: endpoint: mean survival time, dose: 100.0 mg/kg/injection, schedule: Q04DX002 (ip), vehicle: saline with Tween-80.
[6] abbreviates: endpoint: mean survival time, dose: 200.0 mg/kg/injection, schedule: Q04DX002 (ip), vehicle: saline with Tween-80.
The mark [7] stands for this setting: endpoint: mean survival time, dose: 100.0 mg/kg/injection, schedule: Q04DX003 (ip), vehicle: saline.
[8] abbreviates: endpoint: mean survival time, dose: 100.0 mg/kg/injection, schedule: Q01DX001 (ip), vehicle: saline.
[9] abbreviates: endpoint: mean survival time, dose: 200.0 mg/kg/injection, schedule: Q01DX001 (ip), vehicle: saline.
[10] abbreviates: endpoint: mean survival time, dose: 400.0 mg/kg/injection, schedule: Q01DX001 (ip), vehicle: saline.

“And” between values parts separate entries of the source, which are not always exact repeats. Equal entries are not always repeated. Inconclusive results and toxic doses are left out.

In the case of `O=C(O)COc1ccc(-c2ccccc2)cc1`, the T/C under setting [1] is 104 % of control, the T/C under setting [2] was 90 % of control and the T/C under setting [3] was 101 % of control.
For `COc1cccc(CNc2ncnc3nc[nH]c23)c1` the same measures were 92 % of control, 91 % of control and 97 % of control.
Take `Cc1ccc(S(=O)(=O)N(CC(=O)O)c2cccc(Cl)c2)cc1`: the T/C is 101 % of control (endpoint: mean survival time, dose: 100.0 mg/kg/injection, schedule: Q01DX009 (ip), vehicle: Klucel (hydroxypropylcellulose) (HPC)); 98 % of control (endpoint: mean survival time, dose: 200.0 mg/kg/injection, schedule: Q01DX009 (ip), vehicle: Klucel (hydroxypropylcellulose) (HPC)); 100 % of control (endpoint: mean survival time, dose: 400.0 mg/kg/injection, schedule: Q01DX009 (ip), vehicle: Klucel (hydroxypropylcellulose) (HPC)).
For the molecule `CCC1(OC(=O)CN2CCN(CCCO)CC2)C(=O)OCc2c1cc1n(c2=O)Cc2cc3ccccc3nc2-1` (stereo not given), the T/C runs as follows: (endpoint: median survival time, dose: 6.25 mg/kg/injection, schedule: Q04DX002 (ip), vehicle: water) 106 % of control; (endpoint: median survival time, dose: 12.5 mg/kg/injection, schedule: Q04DX002 (ip), vehicle: water) 107 % of control and 108 % of control; (endpoint: median survival time, dose: 25.0 mg/kg/injection, schedule: Q04DX002 (ip), vehicle: water) 121 % of control and 111 % of control; (endpoint: median survival time, dose: 50.0 mg/kg/injection, schedule: Q04DX002 (ip), vehicle: water) 120 % of control; (endpoint: median survival time, dose: 100.0 mg/kg/injection, schedule: Q04DX002 (ip), vehicle: water) 170 % of control.
With `O=C1O/C(=C2/OC(=O)c3ccccc32)c2ccccc21`, the T/C is 92 % of control under setting [4]; 92 % of control under setting [5]; 92 % of control under setting [6]; 96 % of control (endpoint: mean survival time, dose: 400.0 mg/kg/injection, schedule: Q04DX002 (ip), vehicle: saline with Tween-80).
As for `C=CC1CC[N-]CC1.C=CC1CC[N-]CC1.C=CC1CC[N-]CC1.[Cl][Cr]([Cl])[Cl]`, under setting [7], the T/C is 102 % of control.
Take `O=C1C(CO)=C[C@@H](O)[C@H]2O[C@@H]12`: the T/C under setting [7] was 100 % of control; the T/C (endpoint: mean survival time, dose: 200.0 mg/kg/injection, schedule: Q04DX003 (ip), vehicle: saline) was 102 % of control; the T/C (endpoint: mean survival time, dose: 400.0 mg/kg/injection, schedule: Q04DX003 (ip), vehicle: saline) is 102 % of control.
Consider `CSC(SC)=C(C#N)C#N`, for which the T/C reads like this: (endpoint: mean survival time, dose: 12.5 mg/kg/injection, schedule: Q04DX002 (ip), vehicle: saline) 102 % of control; (endpoint: mean survival time, dose: 25.0 mg/kg/injection, schedule: Q04DX002 (ip), vehicle: saline) 94 % of control; (endpoint: mean survival time, dose: 50.0 mg/kg/injection, schedule: Q04DX002 (ip), vehicle: saline) 92 % of control.
As to `CN(C)N=Nc1ccccc1C(=O)NC#N`, the T/C (endpoint: mean survival time, dose: 9.38 mg/kg/injection, schedule: Q01DX009 (ip), vehicle: Klucel (hydroxypropylcellulose) (HPC)) is 101 % of control and 103 % of control and 104 % of control.
For the molecule `COC1=C(NC(C)=O)C(=O)c2nc(-c3nc(C(=O)O)c(C)c(-c4ccc(OC)c(OC)c4O)c3N)ccc2C1=O`, the T/C reads like this: (endpoint: median survival time, dose: 6.25 mg/kg/injection, schedule: Q01DX009 (ip), vehicle: Klucel (hydroxypropylcellulose) (HPC)) 106 % of control; (endpoint: median survival time, dose: 12.5 mg/kg/injection, schedule: Q01DX009 (ip), vehicle: Klucel (hydroxypropylcellulose) (HPC)) 108 % of control; (endpoint: median survival time, dose: 25.0 mg/kg/injection, schedule: Q01DX009 (ip), vehicle: Klucel (hydroxypropylcellulose) (HPC)) 104 % of control; (endpoint: median survival time, dose: 50.0 mg/kg/injection, schedule: Q01DX009 (ip), vehicle: Klucel (hydroxypropylcellulose) (HPC)) 107 % of control; (endpoint: median survival time, dose: 100.0 mg/kg/injection, schedule: Q01DX009 (ip), vehicle: Klucel (hydroxypropylcellulose) (HPC)) 109 % of control; (endpoint: median survival time, dose: 200.0 mg/kg/injection, schedule: Q01DX009 (ip), vehicle: Klucel (hydroxypropylcellulose) (HPC)) 109 % of control.
With `CCOC(=O)C[n+]1ccc(C(=O)c2cc3ccccc3[nH]2)cc1`, the T/C reads like this: (endpoint: mean survival time, dose: 100.0 mg/kg/injection, schedule: Q01DX001 (ip), vehicle: saline with Tween-80) 97 % of control; (endpoint: mean survival time, dose: 200.0 mg/kg/injection, schedule: Q01DX001 (ip), vehicle: saline with Tween-80) 101 % of control; (endpoint: mean survival time, dose: 400.0 mg/kg/injection, schedule: Q01DX001 (ip), vehicle: saline with Tween-80) 93 % of control.
For `COC(=O)/C(=C\c1ccccc1Cl)C(C)=O`, the T/C reads like this: under setting [1], 104 % of control; under setting [2], 98 % of control; under setting [3], 102 % of control.
The matching figures for `COC(=O)CCC(C)(c1ccc(O)cc1)c1ccc(O)cc1`: 103 % of control, 97 % of control and 91 % of control.
For `COc1ccc2ccccc2c1NC(C)=O`, the T/C under setting [8] is 102 % of control, the T/C under setting [9] is 101 % of control and the T/C under setting [10] is 101 % of control.
For the molecule `CC1=C(O)C(=O)[C@@H]2O[C@@H]2C1=O`, the T/C is, setting by setting: (endpoint: mean survival time, dose: 0.78 mg/kg/injection, schedule: Q01DX009 (ip), vehicle: saline) 98 % of control and 102 % of control; (endpoint: mean survival time, dose: 1.56 mg/kg/injection, schedule: Q01DX009 (ip), vehicle: saline) 101 % of control and 102 % of control; (endpoint: mean survival time, dose: 3.12 mg/kg/injection, schedule: Q01DX009 (ip), vehicle: saline) 96 % of control and 107 % of control; (endpoint: mean survival time, dose: 6.25 mg/kg/injection, schedule: Q01DX009 (ip), vehicle: saline) 98 % of control and 108 % of control; (endpoint: mean survival time, dose: 12.5 mg/kg/injection, schedule: Q01DX009 (ip), vehicle: saline) 108 % of control; (endpoint: mean survival time, dose: 25.0 mg/kg/injection, schedule: Q01DX009 (ip), vehicle: saline) 87 % of control.
Regarding `COC(=O)C1C(C(C)=O)C2C(=O)C3C(C(=O)OC)C(C(=O)OC)C3C(=O)C12` (stereo not given), the T/C runs as follows: (endpoint: mean survival time, dose: 25.0 mg/kg/injection, schedule: Q04DX002 (ip), vehicle: saline with Tween-80) 93 % of control; under setting [4], 96 % of control; under setting [5], 100 % of control; under setting [6], 96 % of control.
Consider `O=C1OCC2CC=CCC12` (stereo not given), for which the T/C by setting is: (endpoint: mean survival time, dose: 50.0 mg/kg/injection, schedule: Q01DX001 (ip), vehicle: carboxymethylcellulose (CMC)) 92 % of control; (endpoint: mean survival time, dose: 100.0 mg/kg/injection, schedule: Q01DX001 (ip), vehicle: carboxymethylcellulose (CMC)) 100 % of control; (endpoint: mean survival time, dose: 200.0 mg/kg/injection, schedule: Q01DX001 (ip), vehicle: carboxymethylcellulose (CMC)) 92 % of control; (endpoint: mean survival time, dose: 400.0 mg/kg/injection, schedule: Q01DX001 (ip), vehicle: carboxymethylcellulose (CMC)) 97 % of control.
In the case of `BrC1CCCC1`, the T/C was 100 % of control under setting [8], 102 % of control under setting [9] and 102 % of control under setting [10].
Turning to `CCCCCCCCCCCCCCCCC(C(=O)O)C(O)(CC(=O)O)C(=O)O` (stereo not given), the T/C is 90 % of control (endpoint: mean survival time, dose: 25.0 mg/kg/injection, schedule: Q01DX009 (ip), vehicle: saline with Tween-80) and 88 % of control (endpoint: mean survival time, dose: 50.0 mg/kg/injection, schedule: Q01DX009 (ip), vehicle: saline with Tween-80).
Consider `CC(NC=O)(C(=O)O)c1ccccc1` (stereo not given), for which the T/C (endpoint: mean survival time, dose: 50.0 mg/kg/injection, schedule: Q01DX001 (ip), vehicle: other) is 102 % of control; the T/C (endpoint: mean survival time, dose: 100.0 mg/kg/injection, schedule: Q01DX001 (ip), vehicle: other) is 97 % of control and 90 % of control; the T/C (endpoint: mean survival time, dose: 200.0 mg/kg/injection, schedule: Q01DX001 (ip), vehicle: other) was 100 % of control and 102 % of control; the T/C (endpoint: mean survival time, dose: 400.0 mg/kg/injection, schedule: Q01DX001 (ip), vehicle: other) was 97 % of control.
In the case of `CCCCN1CCCCC1C(=O)Nc1c(C)cccc1C` (stereo not given), the T/C reads like this: (endpoint: mean survival time, dose: 9.5 mg/kg/injection, schedule: Q01DX001 (ip), vehicle: saline) 102 % of control; (endpoint: mean survival time, dose: 19.0 mg/kg/injection, schedule: Q01DX001 (ip), vehicle: saline) 102 % of control; (endpoint: mean survival time, dose: 38.0 mg/kg/injection, schedule: Q01DX001 (ip), vehicle: saline) 100 % of control.

These data come from PubChem BioAssay AID256 (DTP/NCI, 2004).
